# Data as given in US9956319B2, “Compositions useful as antibiofilm or antimicrobial agents and methods using same” (BAYLOR COLLEGE OF MEDICINE, priority 2012, dated 2018).
# Key:
# [1] = test system: vancomycin-resistant Enterococcus (VRE); test: Zones of inhibition of impregnated catheter segments, modified Kirby-Bauer method; format: cell-based
# Method: (§1) To evaluate the antimicrobial activity of central venous catheters treated with α-lipoic acid or its combination with gentamicin, segments of 7 French triple lumen polyurethane central venous catheters were impregnated with α-lipoic acid, gentamicin, or the combination of lipoic acid and gentamicin using the same patented method described in Example 1 with 50 mg/ml of each agent (for the final solution volume). After the impregnation process and drying, zones of inhibition were performed on one-centimeter segments according to a modified Kirby-Bauer method against MSSE, MRSE, MRSA, K. pneumoniae, E. coli, P. mirabilis, Pseudomonas aeruginosa, and Candida albicans. Each segment was half embedded in the center of a Muller-Hinton agar plate that had been previously inoculated with an individual organism. Prior to placing the catheter segments in agar, each organism was grown for 18 hours in TSB to a concentration of 0.5 McFarland (10^8 cfu/ml). A cotton swab was placed in the suspension and streaked across the surface of the Muller-Hinton agar plate to cover the entire plate. All plates were placed in a 37° C. incubator for 24 hours. Zones were measured in mm after the incubation period (Table 2).
# (§2) To evaluate the antimicrobial activity of central venous catheters treated with lipoamide or its combination with levofloxacin, segments of 7 French triple lumen polyurethane central venous catheters were impregnated with levofloxacin or the combinations of lipoamide and levofloxacin using the same patented method described in Example 1 (U.S. Pat. No. 6,589,591) with 100 mg/ml (final solution volume) of each agent. […] Zones of inhibition were measured in mm after the incubation period (Table 4).
# as §2, with “doxycycline,” for “levofloxacin,”, “doxycycline” for “levofloxacin”, “5).” for “4).”
# as §2, with “dihydrolipoic acid,” for “lipoamide or its combination with levofloxacin,”, “dihydrolipoic acid” for “levofloxacin or the combinations of lipoamide and levofloxacin”, “25” for “100”, “the” for “each”, “6).” for “4).”
# [2] = test system: MSSE; test: as above; format: cell-based, Staphylococcus epidermidis
# Method: as §1
# (§3) To evaluate the antimicrobial activity of central venous catheters treated with α-lipoic acid or its combination with doxycycline, segments of 7 French triple lumen polyurethane central venous catheters were impregnated with doxycycline or the combinations of α-lipoic acid and doxycycline using the same patented method described in Example 1 (U.S. Pat. No. 6,589,591) with 50 mg/ml of each agent (for the final solution volume). After the impregnation process and drying, zones of inhibition were performed on one-centimeter segments according to a modified Kirby-Bauer method against MSSE, MRSE, MRSA, K. pneumoniae, E. coli, P. aeruginosa, P. mirabilis, and C. albicans as described in Example 2. Zones of inhibition were measured in mm after the incubation period (Table 3).
# (§4) To evaluate the antimicrobial activity of central venous catheters treated with lipoamide or its combination with levofloxacin, segments of 7 French triple lumen polyurethane central venous catheters were impregnated with levofloxacin or the combinations of lipoamide and levofloxacin using the same patented method described in Example 1 (U.S. Pat. No. 6,589,591) with 100 mg/ml (final solution volume) of each agent. After the impregnation process and drying, zones of inhibition were performed on one-centimeter segments according to a modified Kirby-Bauer method against MSSE, MRSE, MRSA, vancomycin-resistant Enterococcus (VRE), K. pneumoniae, E. coli, P. aeruginosa, P. mirabilis, and C. albicans as described in Example 2. Zones of inhibition were measured in mm after the incubation period (Table 4).
# as §4, with “doxycycline,” for “levofloxacin,”, “doxycycline” for “levofloxacin”, “5).” for “4).”
# (§5) To evaluate the antimicrobial activity of central venous catheters treated with dihydrolipoic acid, segments of 7 French triple lumen polyurethane central venous catheters were impregnated with dihydrolipoic acid using the same patented method described in Example 1 (U.S. Pat. No. 6,589,591) with 25 mg/ml (final solution volume) of the agent. […]
# [3] = test system: MRSE; test: as above; format: cell-based, Staphylococcus epidermidis
# Method: as §1, §3, §4
# as §4, with “doxycycline,” for “levofloxacin,”, “doxycycline” for “levofloxacin”, “5).” for “4).”
# as §5
# [4] = test system: Pseudomonas aeruginosa; test: as above; format: cell-based
# Method: as §1, §3, §4
# as §4, with “doxycycline,” for “levofloxacin,”, “doxycycline” for “levofloxacin”, “5).” for “4).”
# as §5
# [5] = test system: Klebsiella pneumoniae I; test: as above; format: cell-based
# Method: as §1, §3, §4
# as §4, with “doxycycline,” for “levofloxacin,”, “doxycycline” for “levofloxacin”, “5).” for “4).”
# as §5
# [6] = test system: Klebsiella pneumoniae II; test: as above; format: cell-based
# Method: as §1, §3, §4
# as §4, with “doxycycline,” for “levofloxacin,”, “doxycycline” for “levofloxacin”, “5).” for “4).”
# as §5
# [7] = test system: Candida albicans; test: as above; format: cell-based
# Method: as §1, §3, §4
# as §4, with “doxycycline,” for “levofloxacin,”, “doxycycline” for “levofloxacin”, “5).” for “4).”
# as §5
# [8] = test system: Pseudomonas aeruginosa; test: Bacterial colony counts extracted from impregnated central venous catheters after exposure to bacteria; format: cell-based; settings: catheter impregnated with 100 mg/ml, 10^5 cfu/ml suspension in TSB, 37° C., 24 hours
# Method: To evaluate the anticolonization/antimicrobial activity of central venous catheters treated with lipoamide, segments of 7 French triple lumen polyurethane central venous catheters were impregnated with lipoamide using the same patented method described in Example 1 (U.S. Pat. No. 6,589,591) with 100 mg/ml (final solution volume) of the agent. After the impregnation process and drying, Catheter segments were then placed in the impregnating solution at 55° C. with agitation for 1 hour in the dark. Catheter segments were then removed from the solution and dried under a fume hood overnight in the dark. Catheter segments were rinsed with deionized water the next day and let dry for another 18 hours in the dark. After the impregnation process and drying, one-centimeter segments of impregnated catheters were individually placed in 1 ml of 10^5 cfu/ml suspensions of MRSE, MRSA, or P. aeruginosa in trypticase soy broth (TSB) at 37° C. for 24 hours. One-centimeter segments of non-impregnated catheters were also incubated individually in each bacterial suspension at 37° C. for 24 hours as controls. […]
# Aliquots of each suspension and subsequent dilutions were cultured quantitatively.
# [9] = catheter impregnated with 25 mg/ml of the agent
# [10] = Staphylococcus epidermidis, catheter impregnated with 100 mg/ml of each agent
# [11] = catheter impregnated with 100 mg/ml of each agent
# [12] = Staphylococcus epidermidis, catheter impregnated with 50 mg/ml of each agent, 37° C., 24 hours
# [13] = catheter impregnated with 50 mg/ml of each agent, 37° C., 24 hours
compound,measurement,setting,value
"O=C(O)CCCCC(S)CCS (stereo not drawn) [Dihydrolipoic acid, 6,8-dimercaptooctanoic acid]",Zones of inhibition,[1]; [9],14 mm
same,Zones of inhibition,[2]; [9],25 mm
same,Zones of inhibition,[3]; [9],21 mm
same,Zones of inhibition,"[4]; Pseudomonas aeroginosa, catheter impregnated with 25 mg/ml of the agent",11 mm
same,Zones of inhibition,[5]; [9],0 mm
same,Zones of inhibition,"[6]; Klebsiella pneumoniae II, catheter impregnated with 25 mg/ml of the agent",0 mm
same,Zones of inhibition,[7]; [9],13 mm
"NC(=O)CCCCC1CCSS1 (stereo not drawn) [Lipoamide, lipoamide]",zone of inhibition at 100000 µg/mL,"[1]; Enterococcus, catheter impregnated with 100 mg/ml of each agent",4 mm
same,zone of inhibition at 100000 µg/mL,[2]; [10],24 mm
same,zone of inhibition at 100000 µg/mL,[3]; [10],16 mm
same,zone of inhibition at 100000 µg/mL,"[4]; Pseudomonas aeruginosa, Pseudomonas aeroginosa, catheter impregnated with 100 mg/ml of each agent",18 mm
same,zone of inhibition at 100000 µg/mL,[5]; [11],12 mm
same,zone of inhibition at 100000 µg/mL,"[6]; Klebsiella pneumoniae II, catheter impregnated with 100 mg/ml of each agent",13 mm
same,zone of inhibition at 100000 µg/mL,[7]; [11],6 mm
same,Mean bacterial colony counts extracted from catheter,[8],210000
"O=C(O)CCCCC1CCSS1 (stereo not drawn) [Lipoic acid, 1,2-dithiolane-3-pentanoic acid]",zone of inhibition at 50000 µg/mL,[2]; [12],32 mm
same,zone of inhibition at 50000 µg/mL,[3]; [12],22 mm
same,zone of inhibition at 50000 µg/mL,"[4]; Pseudomonas aeruginosa, catheter impregnated with 50 mg/ml of each agent, 37° C., 24 hours",5 mm
same,zone of inhibition at 50000 µg/mL,[5]; [13],20 mm
same,zone of inhibition at 50000 µg/mL,"[6]; Klebsiella pneumoniae, Klebsielle pneuminiae II, catheter impregnated with 50 mg/ml of each agent, 37° C., 24 hours",18 mm
same,zone of inhibition at 50000 µg/mL,[7]; [13],10 mm
